Results published in US11643421B2, “Process for the preparation of tricyclic PI3K inhibitor compounds and methods for using the same for the treatment of cancer” (priority 2015, dated 2023).

Experiment: MALDI imaging of brain distribution, U87 orthotopic model
Assay type: in vivo, female nude mice
Conditions: re-analysis of previously obtained images (Salphati et al. 2014)
Experimental: Mice were euthanized at 1 and 6 hours post-dose via exsanguination by perfusion under anesthesia. Brains were excised, flash frozen in liquid N2 and stored in a −80° C. freezer until analyzed. Fresh frozen tissue sections were obtained on a cryomicrotome (Leica CM3050S, Buffalo Grove, Ill.) at 12 μm thickness and thaw-mounted onto indium tin oxide coated glass slides (Bruker Daltonics, Billerica, Mass.). Tissue sections were an analyzed by imaging MALDI MS, providing signal intensities (and not absolute quantitation), followed by cresyl violet staining for histological interrogation.
For MALDI MAS analysis, a 40 mg/mL solution of 2,5-dihydroxybenzoic acid (Sigma-Aldrich, St. Louis, Mo.) was prepared in methanol:water (70:30 v/v). […] Matrix solution was homogenously spray-coated onto the tissue using a HTX TM-Sprayer (HTX technologies. Chapel Hill, N.C.). Matrix-coated tissue sections were transferred to the MALDI mass spectrometer (SolariX 7T FT-ICR, Bruker Daltonics, Bremen, Germany) for imaging analysis. […] Laser intensity and number of shots were optimized for sensitivity of the parent drug (1200 shots) with ion detection collected over the mass range of m/z 150-3000.
Following completion of the imaging experiments, matrix coaling was removed by rinsing the glass slide in 100% methanol for 30 seconds or until the entire matrix was visibly removed. […] Microscope images were obtained on an Olympus BX51 (Tokyo, Japan) at 10× magnification and stitched using MicroSuite Analytical v3.0 software (Olympus, Tokyo, Japan). Subsequently, stained images were co-registered to the optical images in FlexImaging for visualization and annotation of tumor and non-tumor regions for the drug images.
To assess drug distribution, imaging MALDI MS data from U87 and GS2 tumor models were co-registered to the cresyl violet stained microscope images in FlexImaging Regions of interest (ROIs) that were selected based on the anatomical features defined in the histological image including tumor and non-tumor regions. Drug intensity for each pixel within the defined ROI was extracted and exported. […] Histogram plots were created in GraphPad Prism 5 to visualize the distribution of pixel intensity frequencies.

CS(=O)(=O)N1CCN(Cc2cc3nc(-c4cccc5[nH]ncc45)nc(N4CCOCC4)c3s2)CC1 [pictilisib, reference compound]
distribution of signal intensities in the U87 tumor (MALDI): concentrated in the low intensity bins
